Results on 1 molecule are retold here after patent US12344610B2, “APOL1 inhibitors and methods of use” (Maze Therapeutics, Inc., priority 2022, dated 2025).

Each structure is given as a SMILES string.

This assay concerns human immortalized podocytes inducibly expressing APOL1 G2. The experiment in a line: APOL1 G2 podocyte cell rescue assay (Example B4). To be noted: Homo sapiens, differentiated human podocytes, doxycycline-induced APOL1 G2, CellTiter-Glo; geometric mean of at least 2 runs; † = single run. The assay is classed as cell-based. The protocol:
APOL1 G2 human immortalized podocyte viability assay for measurement of cytotoxicity reversal by compound (APOL1 G2 podocyte cell rescue assay).
Cell Handling. The hTERT-immortalized kidney podocyte cell line was procured from the laboratory of Dr. Moin Saleem at the University of Bristol, UK (Nephrology 17 (2012) 525-531; doi:10.1111/j.1440-1797.2012.01619.x; herein incorporated by reference in its entirety). Parental and engineered cell lines were cultured in RPMI 1640 media (Gibco, 11875093) with 10% Tet System Approved FBS (Takara, 631101). The engineered cell line was maintained under selection (2.5 μg/mL puromycin). Cell lines were maintained and engineered at 33° C. Cell cultures were transferred to 37° C. for 10 to 14 days to initiate differentiation (Nephrology 17 (2012) 525-531; doi:10.1111/j.1440-1797.2012.01619.x; herein incorporated by reference in its entirety). During this time, media was refreshed every 3 days. After differentiation, cells engineered to inducibly express APOL1 G2 were used in the podocyte cell rescue assay.
Cell Line Engineering. The APOL1 G2 coding sequence was cloned into the pLVX-TetOne-Puro vector and verified by sequencing (Genscript Biotech). This construct was designed to have a C-terminal HiBiT tag. Lentiviral packaging of the vector was conducted using the Lenti-X Packaging Single Shots (VSVG) system according to manufacturer instructions (Takara Bio, 631275). A stable cell line was generated by transfecting the parental podocyte cell line with the concentrated virus in media with 5 μg/mL polybrene (Sigma, TR-1003-G). Media was changed the following day. 72 hours post transfection, 2.5 μg/mL puromycin (Gibco, A1113803) was added to the cells and cells were maintained in selection media thereafter. This APOL1 G2 stable cellular pool was subjected to a stringent limiting dilution to generate a pure stable clone (Podocyte/pLVX-TetOne APOL1 G2/clone D10) capable of inducible expression of APOL1 G2.
Assay Setup. T175 flasks containing differentiated podocytes engineered to inducibly express APOL1 G2 (Podocyte/pLVX-TetOne APOL1 G2/clone D10) were washed once with 15 mL of DPBS (Thermo Fisher, 14190-144). These flasks were each trypsinized with 3 mL of prewarmed TrypLE Express (Gibco, 12605-010) and incubated at 37° C. with 5% CO2 until cells detached and neutralized with 7 mL of prewarmed assay media (RPMI 1640 media with 10% Tet System Approved FBS, no selection agent). Cells were pooled and the resulting suspension was gently mixed. The cell suspension was counted using a Countess Cell Counting Chamber (Invitrogen) and the cell concentration was adjusted to 240,000 cells/mL using assay media. Next, 25 μL of a 480 ng/mL working stock of doxycycline diluted in assay media was added to an assay ready plate. All experiments were performed in 384-well, white, solid bottom, tissue culture treated plates (Greiner, 781080). The assay ready compound plates were generated with duplicate 8-point compound dilution series that consisted of 3-fold stepwise dilutions (0.4% DMSO final). The plates were centrifuged at 1000 rpm for 1 minute. 25 μL of diluted cell suspension (final cell density=6,000 cells/well) was added to each well. The plates were centrifuged again at 1000 rpm for 1 minute and then incubated in a humidified incubator (37° C. with 5% CO2). After 95 hours, the assay plates were removed from the incubator and allowed to equilibrate to room temperature for 1 hour. CellTiter-Glo® reagent (Promega, G7570) was prepared according to the manufacturer's instructions. 25 μL of CellTiter-Glo® reagent was added to each well. Assay plates were sealed with foil and mixed for 5 minutes on an orbital shaker (500 rpm) to induce cell lysis. Plates were centrifuged at 1000 rpm for 1 minute. 10 minutes after CellTiter-Glo® reagent addition, an Envision plate reader (Perkin Elmer) was used to measure the luminescent signal of each assay plate. Collaborative Drug Discovery software was utilized for graphing data. […]
(Cellular ATP, detected with luciferase, serves as a proxy for viable cell number.)

As a reminder, the EC50 is the midpoint of the concentration-response curve. A high value points to lower potency in that assay. For `CN(c1c(F)cc(OCCN2CCC3(CC2)C(=O)Nc2ccc(Cl)cc23)cc1F)S(C)(=O)=O` [Compound 127, N-[4-(2-{5-chloro-2-oxo-1,2-dihydrospiro[indole-3,4′-piperidin]-1′-yl}ethoxy)-2,6-difluorophenyl]-N-methylmethanesulfonamide], the midpoint of the response, the EC50, lay at 5.39 nM.
